In one series the target is Human A2AAR (Homo sapiens, UniProt P29274). In words: A2AAR competition binding ([3H]-ZM241385 displacement). On the set-up: expressed in transfected cells; host or cells: HeLa-A2AAR cell line (membranes). To be noted: radioligand displacement, mean±SEM of three experiments in duplicate; read-out: A2AAR binding affinity Ki. The method, then:
Binding assays. Human A2AAR competition binding experiments were carried out in multiscreen GF/C 96-well plates (Millipore, Madrid, Spain) pretreated with binding buffer (50 mM Tris-HCl, 1 mM EDTA, 10 mM MgCl2, 2 U/ml adenosine deaminase, pH=7.4).
Each well contained 5 µg of membranes from a He l a-A2AAR cell line (protein concentration […]
compound studied. Non-specific binding was determined in the presence of 50 µM NE C A (Sigma E2387). The reaction mixture (200 µl/well) was incubated at 25 °C for 30 min, after which it was filtered and washed four times with 250 µl wash buffer (50 mM Tris -HCl, 1 mM EDTA, 10 mM MgCl 2, pH=7. 4) before measuring in a microplate beta scintillation counter (Microbeta Trilux, PerkinElmer, Madrid, Spain). Three independent experiments were carried out to calculate K i values (n=3). […]
(In a radioligand displacement assay an active substance lowers the binding of a labelled ligand.)

The nature of the next series: Caco-2 cell permeability. The class given is in vitro ADME. The conditions noted are these: human, Caco-2 monolayer. Here is the method: forskolin (Sigma 17018) was added and incubated for 5 min at 37 °C with gentle stirring (150 rpm). Reagents (#CISBIO 62AM4PEC) were added and, after incubation for 60 min at rt with gentle stirring (90 rpm) and protected from light, homogeneous time resolved fluorescence (HTRF, λEx: 320 nm; λEm: 620-665 nm) from each well was measured using a Tecan Infinite M1000 Pro. Data were normalized to the maximum effect of dopamine. EC50 and Ema x values were obtained after fitting the d ata to a four -parameter logistic equatio n using Prism V2. 1 (Graph Pad Inc, Chicago, USA) .
Cell permeability. The Caco-2 cell permeability of compound 30 was determined by the Uppsala university optimization and pharmaceutical profiling platform (UDOPP) as described previously26. Briefly, Caco-2 cell monolayers (passage 94-105) were grown on a permeable filter support and used on day 21 after seeding. Prior to the experiment a 10 µM solution of 30 was prepared by dilution of a 10 mM stock solution in DMSO with Hank’ s balanced salt solution (HBSS; 7.4) and warmed to 37 ° C. The Caco-2 filters were washed with pre-warmed HBSS prior to the experiment, and the solution of 30 was thereafter applied on the apical or basolateral side of the monolayer. Permeability was determined at 37 ° C and at pH 7.4 in both the apical and basolateral chamber, with a stirring rate of 500 rpm. […]
Background: Caco-2 cells form a polarised layer with tight junctions and transporters.

Series [1] can be described thus: Blood-brain distribution in rats. To be noted: male, Sprague Dawley, rat, 24 mg kg^−1 IP. It is filed as in vivo. Here is the method:
Blood-brain distribution. Measurements of blood-brain distribution in rats were performed by Admescope (Finland). The male Sprague Dawley rats (120-157 g) were housed in air-conditioned rooms (12h dark/light cycle) at 22 °C and a humidity of 55%. Animals were allowed to acclimatize to the site for at least five days prior to the study.
Compound 30 (24 mg/kg, formulated in 17% DMSO in saline) was administered intraperitoneally and blood samples were collected at 10, 30, and 50 min after dosing. Within 30 min following the sampling, the blood was centrifuged for plasma separation (room temperature; 10 min; 2700 G). The plasma samples were transferred into plastic tubes, frozen and stored at –20 °C until analysis. Brains were perfused under terminal isoflurane anaesthesia at 10, 30 and 50 min after dosing (n=6 per time point). For the perfusion, the heart of the rat was expo sed and major veins leading to the right atrium were severed. […]
Evaluation of compound 30 in rodent model of Parkinsonism. […] Two weeks after the unilateral 6-OHDA lesion, rats were injected with apomorphine (1 mg/kg, IP; Sigma) and their contralateral rotations were measured to determine the degree of nigrostriatal denervation. […] The number of rotations was calculated automatically with Noldus EthoVision XT11. […]

The text below walks through data of publication PMC8456950, “Structure‐Guided Design of G‐Protein‐Coupled Receptor Polypharmacology” (Angewandte Chemie (International Ed. in English), 2021).

The term Ki denotes the dissociation constant of the complex between target and ligand, obtained from inhibition or displacement. The term Papp A→B denotes the apparent permeability from the apical to the basolateral side of a cell layer. A higher Papp A→B goes with ready permeation.

Sequence of Human A2AAR (P29274 whole entry): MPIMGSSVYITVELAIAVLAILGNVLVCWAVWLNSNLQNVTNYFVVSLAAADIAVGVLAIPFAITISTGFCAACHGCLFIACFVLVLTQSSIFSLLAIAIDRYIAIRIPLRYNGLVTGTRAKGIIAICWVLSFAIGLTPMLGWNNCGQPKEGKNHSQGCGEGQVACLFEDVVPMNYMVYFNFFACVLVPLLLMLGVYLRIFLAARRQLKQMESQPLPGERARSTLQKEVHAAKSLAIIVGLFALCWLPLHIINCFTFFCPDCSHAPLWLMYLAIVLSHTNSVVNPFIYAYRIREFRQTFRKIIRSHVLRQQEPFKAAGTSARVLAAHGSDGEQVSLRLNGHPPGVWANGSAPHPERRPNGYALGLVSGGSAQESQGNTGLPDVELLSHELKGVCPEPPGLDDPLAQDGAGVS

With `CCCN(CCCCC(=O)Nc1nc2c(OC)cccc2s1)C1Cc2ccccc2C1` [Compound 26], the Ki on Human A2AAR turned out to be 610 ± 90 nM.
As to `CCCN(CCCCC(=O)Nc1nc2c(Br)cccc2s1)C1Cc2ccccc2C1` [Compound 27], the Ki on Human A2AAR stood at 390 ± 50 nM.
As for `CCCN(CCCCC(=O)Nc1nc2c(OC)ccc(OC)c2s1)C1Cc2ccccc2C1` [Compound 30], in “Caco-2 cell permeability” (10 µM, pH 7.4, 37 °C, apical to basolateral), the Papp A→B at 60 min, 10 µM was found to be 3.8 ×10⁻⁶ cm/s. The efflux ratio at 60 min, 10 µM in “Caco-2 cell permeability” (pH 7.4, read-out: efflux ratio (ER)) was 8. For the same molecule, the Ki at Human A2AAR is 160 ± 30 nM. Further, in series [1] (brain, at 30 min, read-out: total concentration in the brain), the concentration at 30 min was approximately 3000 nM. In series [1] (brain/plasma, peak after 30 min, mean±SD, read-out: brain-to-plasma ratio), the Kp at 0.5 h came to 0.79 ± 0.13.
In the case of `CCN(CCCCC(=O)Nc1nc2c(Br)cccc2s1)C1Cc2ccccc2C1` [Compound 22], the Ki on Human A2AAR was determined as 340 ± 50 nM.
